Molecular target: T1, streptavidin (SAv) (Streptomyces avidinii, UniProt P22629)
T1 construct: commercial lyophilized streptavidin (Sigma Aldrich), homotetramer, immobilised as monolayer on biotinylated OEG
Experiment: AFM single molecule force spectroscopy, Bell-Evans fit
Type: binding
Settings: labelled compound (biotin tethered to AFM tip by PEG linker and thiol-gold bond); koff extrapolated to zero force; 10 mM HEPES pH 7.4, 150 mM NaCl, ambient temperature
Source text: AFM single molecule force spectroscopy, Bell-Evans fit on streptavidin (SAv)

T1 sequence (P22629 25-183): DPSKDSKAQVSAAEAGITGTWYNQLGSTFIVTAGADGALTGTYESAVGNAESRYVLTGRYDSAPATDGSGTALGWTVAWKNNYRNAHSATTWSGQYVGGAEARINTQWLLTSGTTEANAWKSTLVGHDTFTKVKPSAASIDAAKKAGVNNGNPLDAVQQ

biotin
koff: 1.40 ± 0.59 s⁻¹

From article PMC5040960, “A single molecule assay to probe monovalent and multivalent bonds between hyaluronan and its key leukocyte receptor CD44 under force” (Scientific Reports, 2016)
